Laboratory results: US8685974B2 (Bayer CropScience AG, priority 2009, dated 2014)
Values joined by “and” are separate entries in the source; they are usually repeats but may differ in a detail not shown here. Identical values can stand only once. Like-named read-outs stand apart in the source and are kept apart here. Marks after values point to notes of the source that are not given here.

Key:
[1] = tested on: Fusarium proliferatum; test: Production of fumonisin FB1 by Fusarium proliferatum (microtiter plate, HPLC-MS/MS and OD620); assay type: cell-based; conditions: for % inhibition FB1 production at 50 μM: 5 days at 20° C., HPLC-MS/MS; for % inhibition fungal growth at 50 μM: Fusarium proliferatum, OD620 at start and after 5 days
[2] = tested on: Alternaria solani; test: Alternaria test (tomato) / protective; assay type: in vivo; conditions: 500 ppm active compound, protective spray, evaluated 7 days after inoculation
Summary of the method: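 Young tomato plants sprayed protectively with compound formulated in DMF with alkylaryl polyglycol ether emulsifier and diluted in water to the application rate. After inoculation, plants held at 96% rel. humidity and 20° C. Efficacy scored 7 days post-inoculation: 0% equals untreated control, 100% no infection.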

[3] = tested on: Fusarium graminearum; assay type: cell-based
[4] = tested on: Leptosphaeria nodorum; test: Leptosphaeria nodorum test (wheat) / protective; assay type: in vivo; conditions: 500 ppm active compound, protective spray, evaluated 7-9 days after inoculation
Procedure: Leptosphaeria nodorum Test (Wheat)/Protective
Solvent: 49 parts by weight of N,N-dimethylformamide
Emulsifier: 1 part by weight of alkylaryl polyglycol ether
To produce a suitable preparation of active compound, 1 part by weight of active compound is mixed with the stated amounts of solvent and emulsifier, and the concentrate is diluted with water to the desired concentration.
To test for protective activity, young wheat plants are sprayed with the preparation of active compound at the stated application rate. […] The plants are then placed in a greenhouse at 90% rel. atmospheric humidity and a temperature of 22° C.
Evaluation is carried out 7-9 days after the inoculation. 0% means an efficacy which corresponds to that of the control, whereas an efficacy of 100% means that no infection is observed.

[5] = physchem
[6] = tested on: Pyrenophora teres; test: In vivo test on Pyrenophora teres (barley net blotch); conditions: dose of 500 ppm; barley plants; grading 12 days after contamination
Summary of the method: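 Barley plants (Plaisant) grown at 12° C. sprayed at 1-leaf stage with compound in acetone/Tween/DMSO diluted in water; 24 h later inoculated with P. teres spores (12,000 spores/ml). Incubated 24 h at ~20° C., 100% RH, then 12 days at 80% RH; graded 12 days post-inoculation against untreated controls.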

Row | SMILES | log p (pH 2.7) | % inhibition FB1 production at 50 μM [1] | % inhibition fungal growth at 50 μM [1] | efficacy [2] | log p (pH 2.3) | % Inhibition of fungal growth at 50 μM ([3]; 50 μM) | % Inhibition of DON/AcDON at 50 μM ([3]; 50 μM, 7 days at 28° C.) | efficacy [4] | chromatographic logP ([5]; pH 2.7) | chromatographic logP ([5]; pH 7.8) | protection [6] | logP value of the minor isomer (pH 2.7) | % Inhibition of DON/AcDON at 50 μM [3]
1 | CC(=O)n1cc(-c2ccncn2)c(-c2ccc(Cl)s2)n1 [Example 4] | 2.92^[b] | 89% | 22% | – | – | – | – | – | – | – | – | – | –
2 | CCC(C)n1cc(-c2ccnc(C#N)c2)c(-c2ccc(Cl)s2)n1 (centres unmarked) [Example 97] | 4.41^[b] | 99% | 17% | 90% | – | – | – | – | – | – | – | – | –
3 | CC(C)Cn1cc(-c2ccnc(NC(=O)C(C)C)n2)c(-c2ccc(Cl)s2)n1 [Example 98] | – | 97% | 4% | – | 3.67^[a] | – | – | – | – | – | – | – | –
4 | COc1ccc(Cn2nc(-c3ccc(Cl)s3)c(-c3ccncc3)c2C2CC2)cc1 [Example 101] | 2.69^[b] | 87% | 0% | – | – | – | – | – | – | – | – | – | –
5 | CCC(C)n1ncc(-c2ccncc2)c1-c1ccc(F)s1 (centres unmarked) [Example 107] | 1.69^[b] | 80% | 1% | – | – | 86% | 100% | – | – | – | – | – | –
6 | CCC(=O)Nc1cc(-c2cn(C(C)CC)nc2-c2cc(Cl)cs2)ccn1 (centres unmarked) [Example 164, N-{4-[1-sec-Butyl-3-(4-chloro-2-thienyl)-1H-pyrazol-4-yl]pyridin-2-yl}propanamide] | – | – | – | 90% | – | – | – | 95% | 3.07 | 3.59 | 100% | – | –
7 | CCC(C)n1cc(-c2ccncc2)c(-c2cc(Cl)cs2)n1 (centres unmarked) [Example 167, 4-[1-sec-Butyl-3-(4-chloro-2-thienyl)-1H-pyrazol-4-yl]pyridine] | – | – | – | 90% | – | – | – | 90% | 1.86 | – | 95% | (1.76) | –
8 | CCC(=O)Nc1cc(-c2cn(C(C)C)nc2-c2ccc(Cl)s2)ccn1 [Example 246] | 2.78^[b] | – | – | 95% | – | 91% | 99% | 90% | – | – | 100% | – | –
9 | CC(C)n1cc(-c2ccnc(NC(=O)C3CC3)c2)c(-c2ccc(Cl)s2)n1 [Example 247] | 2.94^[b] | – | – | 95% | – | 91% | 99% | 80% | – | – | 100% | – | –
10 | CCC(C)C(=O)Nc1cc(-c2cn(C(C)C)nc2-c2ccc(Cl)s2)ccn1 (centres unmarked) [Example 249] | 3.61^[b] | – | – | 95% | – | 11% | 99% | 80% | – | – | 95% | – | –
11 | CCC(C)C(=O)Nc1cc(-c2cn(CC)nc2-c2ccc(Cl)s2)ccn1 (centres unmarked) [Example 252] | 3.13^[b] | – | – | 95% | – | 99% | 99% | 70% | – | – | 100% | – | –
12 | CC(=O)Nc1cc(-c2cn(C(C)C)nc2-c2ccc(Cl)s2)ccn1 [Example 256] | 2.45^[b] | – | – | 100% | – | 100% | 99% | 80% | – | – | 100% | – | –
13 | CC(C)C(=O)Nc1cc(-c2cn(C(C)C)nc2-c2ccc(Cl)s2)ccn1 [Example 257] | 3.21^[b] | – | – | 95% | – | 81% | 99% | 90% | – | – | 95% | – | –
14 | CC(C)CC(=O)Nc1cc(-c2cn(C(C)C)nc2-c2ccc(Cl)s2)ccn1 [Example 258] | 3.63^[b] | – | – | 95% | – | 54% | 94% | 70% | – | – | 100% | – | –
15 | CCC(=O)Nc1cc(-c2cn(CC)nc2-c2ccc(Cl)s2)ccn1 [Example 263] | 2.4^[b] | – | – | 95% | – | 100% | 99% | 80% | – | – | 90% | – | –
16 | CCn1cc(-c2ccnc(NC(=O)C3CC3)c2)c(-c2ccc(Cl)s2)n1 [Example 264] | 2.52^[b] | – | – | 90% | – | 100% | 99% | 80% | – | – | 90% | – | –

Row | SMILES | log p (pH 2.7) | % inhibition FB1 production at 50 μM [1] | % inhibition fungal growth at 50 μM [1] | efficacy [2] | log p (pH 2.3) | % Inhibition of fungal growth at 50 μM ([3]; 50 μM) | % Inhibition of DON/AcDON at 50 μM ([3]; 50 μM, 7 days at 28° C.) | efficacy [4] | chromatographic logP ([5]; pH 2.7) | chromatographic logP ([5]; pH 7.8) | protection [6] | logP value of the minor isomer (pH 2.7) | % Inhibition of DON/AcDON at 50 μM [3]
17 | CCC(=O)Nc1cc(-c2cn(C)nc2-c2ccc(Cl)s2)ccn1 [Example 278] | 2.05^[b] | – | – | 90% | – | 100% | 98% | 80% | – | – | 90% | – | –
18 | Cn1cc(-c2ccnc(NC(=O)C3CC3)c2)c(-c2ccc(Cl)s2)n1 [Example 279] | 2.16^[b] | – | – | 80% | – | 100% | 98% | 70% | – | – | 95% | – | –
19 | Cn1cc(-c2ccnc(NC(=O)CC3CC3)c2)c(-c2ccc(Cl)s2)n1 [Example 281] | 2.54^[b] | – | – | 90% | – | 100% | 99% | 80% | – | – | 90% | – | –
20 | CCn1cc(-c2ccnc(NC(C)=O)c2)c(-c2ccc(Cl)s2)n1 [Example 284] | 2.1^[b] | – | – | 95% | – | 100% | 99% | 80% | – | – | 100% | – | –
21 | CCn1cc(-c2ccnc(NC(=O)C(C)C)c2)c(-c2ccc(Cl)s2)n1 [Example 285] | 2.77^[b] | – | – | 95% | – | 90% | 99% | 80% | – | – | 95% | – | –
22 | CCn1cc(-c2ccnc(NC(=O)CC(C)C)c2)c(-c2ccc(Cl)s2)n1 [Example 286] | 3.15^[b] | – | – | 90% | – | 68% | 99% | 90% | – | – | 80% | – | –
23 | CC(=O)Nc1cc(-c2cn(C)nc2-c2ccc(Cl)s2)ccn1 [Example 287] | 1.79^[b] | – | – | 90% | – | 94% | 99% | 80% | – | – | 95% | – | –
24 | CC(C)C(=O)Nc1cc(-c2cn(C)nc2-c2ccc(Cl)s2)ccn1 [Example 288] | 2.39^[b] | – | – | 90% | – | 92% | 99% | 70% | – | – | 95% | – | –
25 | CC(=O)Nc1cc(-c2cnn(/C=C/F)c2-c2ccc(Cl)s2)ccn1 [Example 292] | 2.84^[b] | – | – | 90% | – | 45% | 100% | 70% | – | – | 95% | – | –
26 | CC(=O)N(C(C)=O)c1cc(-c2cn(C(C)C)nc2-c2ccc(Cl)s2)ccn1 [Example 304] | 3.33^[b] | – | – | 95% | – | 87% and 90% | – | 80% | – | – | 95% | – | 100%
27 | CCn1cc(-c2ccnc(N)c2)c(-c2ccc(Cl)s2)n1 [Example 307] | 1.54^[b] | – | – | 80% and 94% | – | 45% | 80% | 78% | – | – | 80% and 95% | – | –
28 | CCC(C)n1cc(-c2ccncc2)c(-c2ccc(Br)s2)n1 (centres unmarked) [Example 354] | 2.15^[b] | – | – | 90% | – | 97% | 99% | 70% | – | – | 95% | – | –
29 | CC(C)n1cc(-c2ccncc2)c(-c2ccc(Br)s2)n1 [Example 387] | 1.88^[b] | – | – | 100% | – | 93% | 99% | 90% | – | – | 80% | – | –
30 | CC(C)Cn1cc(-c2ccncc2)c(-c2ccc(Br)s2)n1 [Example 405] | 2.1^[b] | – | – | 94% | – | 90% | 99% | 94% | – | – | 70% | (1.98) | –
31 | CC(C)Cn1cc(-c2ccncc2)c(-c2cccs2)n1 [Example 407] | 1.5^[b] | – | – | 90% | – | 99% | 100% | 94% | – | – | 90% | – | –
